Consider 3 compounds from patent US20130037709A1, “Method for Clinically Monitoring Niacin and Niacin Metabolites in Serum or Plasma” (priority 2010, published 2013).

A short description of series [1]: Long term storage in tubes (glass vs polypropylene). In kind it is in vitro ADME. An excerpt:
Most preferred are Vacutainer tubes containing lithium-heparin as an anticoagulant.

A short description of series [2]: Stability in plasma. The procedure: (§1) Nicotinic acid, nicotinamide and nicotinuric acid are stable in plasma when frozen (at −20±5° C.) for 64 days and after 3 freeze/thaw cycles. When kept at room temperature, nicotinic acid in plasma becomes unstable after 24 hours.
The test system of series [3] is NAD and NADP in whole blood. The conditions noted are these: individuals undergoing niacin therapy; average pretherapy value 175; cited from earlier work.
The procedure of series [4]:
as §1

This is another data set of the same source.

SMILES strings stand for the structures.

For `NC(=O)c1cccnc1` [nicotinamide], the “change in concentration on long term storage in polypropylene tubes” value in series [1] was “significant changes in the concentration”. The “time stable in plasma when frozen” value in series [2] (64 days) is given as 64 days. Also, in series [2] (plasma), the “stability in plasma after freeze/thaw cycles” value is recorded as “stable”.

For the compound `O=C(O)c1cccnc1` [nicotinic acid, pyridine 3-carboxylic acid], the “average niacin number after niacin supplements” value in series [3] is 665. Also, the “stability in fresh whole blood” value in series [4] is given as “neither nicotinic acid nor the active metabolites were stable”. Also, the “time stable in serum when refrigerated” value (refrigerated) is given as 15 days. Also, the “time stable in serum at room temperature” value (room temperature) amounted to 15 days. Further, in series [2] (24 hours), the “time after which unstable in plasma at room temperature” value was determined as 24 h. The “time stable in plasma when frozen” value in series [2] (64 days) was 64 days. Besides, the “stability in plasma after freeze/thaw cycles” value in series [2] (plasma) was “stable”.

For the compound `O=C(O)CNC(=O)c1cccnc1` [nicotinuric acid], the “stability in plasma after freeze/thaw cycles” value in series [2] (plasma, after 3 freeze/thaw cycles) was “stable”. Also, the “time stable in plasma when frozen” value in series [2] (plasma, frozen at −20±5° C.) is given as 64 days.
